Experimental findings from patent US8551510B2, “Bed bug control and repellency” (Bedoukian Research, Inc., priority 2009, dated 2013) are described below.

Where two headings read alike, the source gives them in different places.

This test deals with bed bugs. Briefly: Choice test with unconcealed bed bugs on filter paper discs, test compound in acetone vs. acetone only (percent repellency). The test is classed as in vivo. Conditions: for percent repellency at 2 hour: 2 hour post-treatment (Table 2). As to the method:
This test was undertaken employing unconcealed bugs. Two semicircular discs of filter paper, 9 cm in radius treated with 1 ml of solution to wet the entire surface, one treated with an acetone solution of the test compound and one only acetone treated were placed on the lid of a Petri dish. Five replicates of ten (10) bed bugs were release into the center of the lids of the Petri dish with a choice of the test compound treated or only acetone treated substrate. The distribution of bed bugs was recorded at ½, […], 2, 6 and 24 hours post-treatment. Paired t-tests were conducted for each treatment to ascertain whether or not there was a statistically significant difference in the number of bed bugs on the treated vs. untreated discs.

Where [1] appears, read: chemical at 0.5% in acetone on filter paper, 0.5 hr post-treatment, read-out: percent repellency at 0.5 hr.
Setting [2] is: chemical at 0.5% in acetone on filter paper, 1 hr post-treatment, read-out: percent repellency at 1 hr.
[3] abbreviates: chemical at 0.5% in acetone on filter paper, 6 hr post-treatment, read-out: percent repellency at 6 hr.
[4] abbreviates: chemical at 0.5% in acetone on filter paper, 24 hr post-treatment, read-out: percent repellency at 24 hr.
[5] abbreviates: chemical at 0.5%, average of 0.5, 1, 6 and 24 hr, read-out: percent repellency, Average.
The mark [6] stands for this setting: 0.5 h, read-out: percent repellency at 0.5 hr.
[7] abbreviates: 1 h, read-out: percent repellency at 1 hr.
The mark [8] stands for this setting: 6 h, read-out: percent repellency at 6 hr.
[9] abbreviates: 24 h, read-out: percent repellency at 24 hr.
[10] abbreviates: read-out: percent repellency, Average.
Setting [11] is: chemical at 0.2% in acetone on filter paper, 0.5 hr post-treatment, read-out: percent repellency at 0.5 hr.
Setting [12] is: chemical at 0.2% in acetone on filter paper, 1 hr post-treatment, read-out: percent repellency at 1 hr.
The mark [13] stands for this setting: chemical at 0.2% in acetone on filter paper, 6 hr post-treatment, read-out: percent repellency at 6 hr.
Setting [14] is: chemical at 0.2% in acetone on filter paper, 24 hr post-treatment, read-out: percent repellency at 24 hr.
[15] abbreviates: chemical at 0.2%, average of 0.5, 1, 6 and 24 hr, read-out: percent repellency, Average.

For the compound `CCCCCCCCC(=O)C(C)=O` [2,3-Undecanedione, reference compound], the pest or weed control at 0.5 % runs as follows: under setting [1], 90%; under setting [2], 60%; under setting [3], 60%; under setting [4], 90%; under setting [5], 75%.

In the case of `O=C1CCCC1C1CCCC1` (stereo not drawn) [2-Cyclopentylcyclopentanone, 2-cyclopentylcyclopentanone], the pest or weed control at 0.5 % under setting [1] was determined as 90%; the pest or weed control at 0.5 % under setting [2] was determined as 90%; the pest or weed control at 0.5 % under setting [3] turned out to be 76%; the pest or weed control at 0.5 % under setting [4] amounted to 70%; the pest or weed control at 0.5 % under setting [5] worked out at 81%.

As for `CC(C)=CCCC(C)=CCC1CCCC1=O` (stereo not drawn) [2-Geranylcyclopentanone (Apritone), 2-(3,7-dimethylocta-2,6-dienyl)cyclopentan-1-one], the pest or weed control at 0.5 % came out at 100% under setting [1]; 100% under setting [2]; 100% under setting [3]; 100% under setting [4]; 100% under setting [5].

For the compound `CCCCCC=CCC1CCCC1=O` (stereo not drawn) [2-Octenylcyclopentanone, 2-(2-octen-1-yl)cyclopentanone], the pest or weed control at 0.5 % by setting is: under setting [1], 100%; under setting [2], 100%; under setting [3], 100%; under setting [4], 100%; under setting [5], 100%.

On to `CCCCCCC=CC(C)=O` [3-Decen-2-one], for which the pest or weed control at 0.5 % by setting is: under setting [1], 82%; under setting [2], 84%; under setting [3], 78%; under setting [4], 76%; under setting [5], 80%.

Regarding `CC(=O)C=CC1C(C)=CCCC1(C)C` (stereo not drawn) [Alpha Ionone, 4-(2,6,6-trimethyl-2-cyclohexenyl)-3-buten-2-one], the pest or weed control at 0.5 % runs as follows: under setting [6], 100%; under setting [7], 100%; under setting [8], 100%; under setting [9], 84%; under setting [10], 96%.

For `CC(=O)C(C)=CC1C(C)=CCCC1(C)C` (stereo not drawn) [Alpha Isomethylionone, 3-methyl-4-(2,6,6-trimethyl-2-cyclohexen-1-yl)-3-buten-2-one], the pest or weed control at 0.5 % under setting [1] is 100%; the pest or weed control at 0.5 % under setting [2] turned out to be 100%; the pest or weed control at 0.5 % under setting [3] worked out at 100%; the pest or weed control at 0.5 % under setting [4] was found to be 84%; the pest or weed control at 0.5 % under setting [5] was determined as 96%.

For the compound `CCCCOC(=O)CCC(C)=O` [Butyl levulinate, reference compound], the pest or weed control at 0.2 % by setting is: under setting [11], 64%; under setting [12], 68%; under setting [13], 62%; under setting [14], 60%; under setting [15], 64%.

Regarding `O=C1CCC/C=C\CCCCCCCCCC1` [Cyclohexadec-5-ene-1-one, (5Z) cyclohexadec-5-ene-1-one], the pest or weed control at 0.1 % runs as follows: (chemical at 0.1% in acetone on filter paper, 0.5 hr post-treatment, read-out: percent repellency at 0.5 hr) 94%; (chemical at 0.1% in acetone on filter paper, 1 hr post-treatment, read-out: percent repellency at 1 hr) 94%; (chemical at 0.1% in acetone on filter paper, 6 hr post-treatment, read-out: percent repellency at 6 hr) 100%; (chemical at 0.1% in acetone on filter paper, 24 hr post-treatment, read-out: percent repellency at 24 hr) 100%; (chemical at 0.1%, average of 0.5, 1, 6 and 24 hr, read-out: percent repellency, Average) 97%.

With `CCC(=O)/C(C)=C/C1C(C)CC=CC1(C)C` (stereo not drawn) [Dimethylionone, (E)-2-methyl-1-(2,2,6-trimethyl-1-cyclohex-3-enyl)pent-1-en-3-one], the pest or weed control at 0.5 % is, setting by setting: under setting [1], 90%; under setting [2], 96%; under setting [3], 96%; under setting [4], 92%; under setting [5], 93.5%.

Regarding `CCCCCC1C(=O)CCC1CC(=O)OCC` (stereo not drawn) [Ethyl dihydrojasmonate, ethyl 2-(3-oxo-2-pentylcyclopentyl)acetate], the “percent repellency at 2 hour” value (chemical at 0.2%) amounted to 90%.

Turning to `CC(=O)CCC=C(C)CCC=C(C)C` [Geranylacetone, 6,10-dimethyl-5,9-undecadien-2-one], the pest or weed control at 0.5 % runs as follows: under setting [1], 100%; under setting [2], 100%; under setting [3], 100%; under setting [4], 100%; under setting [5], 100%.

`CC1=CCCC(C)(C)C1/C=C/C(=O)CC(C)C` (stereo not drawn) [Isobutylionone, (E)-5-Methyl-1-(2,6,6-trimethyl-1-cyclohex-2-enyl) hex-1-en-3-one]: the pest or weed control at 0.5 % under setting [1] is 100%; the pest or weed control at 0.5 % under setting [2] came out at 98%; the pest or weed control at 0.5 % under setting [3] came out at 94%; the pest or weed control at 0.5 % under setting [4] came to 94%; the pest or weed control at 0.5 % under setting [5] came out at 96.5%.

Regarding `CC1(C)C2CCC3(C2)C1C(=O)CCC3(C)C` (stereo not drawn) [Isolongifolanone, 2,2,7,7-tetramethyltricyclo[6.2.1.01,6]undecan-5-one], the pest or weed control at 0.5 % stood at 90% under setting [1]; 88% under setting [2]; 98% under setting [3]; 98% under setting [4]; 93% under setting [5].

In the case of `CCC(C)=CCCC(C)=CCC1CCCC1=O` (stereo not drawn) [Methyl Apritone, 2-(3,7-dimethyl-2,6-nonadienyl)cyclopentanone], the pest or weed control at 0.2 % runs as follows: under setting [11], 100%; under setting [12], 100%; under setting [13], 100%; under setting [14], 100%; under setting [15], 100%. For the same compound, where the note is “chemical at 0.2%”, the “percent repellency at 2 hour” value is reported as 90%.

Consider `CCCCCCCCCCC(C)=O` [Methyl decyl ketone, 2-dodecanone], for which the pest or weed control at 0.5 % is, setting by setting: under setting [1], 100%; under setting [2], 100%; under setting [3], 100%; under setting [4], 100%; under setting [5], 100%.

`CCCCCC1C(=O)CCC1CC(=O)OC` (stereo not drawn) [Methyl dihydrojasmonate, methyl 2-(3-oxo-2-pentylcyclopentyl)acetate]: the pest or weed control at 0.2 % under setting [11] was found to be 86%; the pest or weed control at 0.2 % under setting [12] stood at 96%; the pest or weed control at 0.2 % under setting [13] was determined as 94%; the pest or weed control at 0.2 % under setting [14] stood at 92%; the pest or weed control at 0.2 % under setting [15] stood at 92%. Moreover, the “percent repellency at 2 hour” value (chemical at 0.2%) came to 98%.

Turning to `CC/C=C\CC1C(=O)CCC1CC(=O)OC` (stereo not drawn) [Methyl jasmonate, (Z)-methyl 2-(3-oxo-2-(pent-2-enyl)cyclopentyl)acetate], the pest or weed control at 0.2 % was determined as 80% under setting [11]; 90% under setting [12]; 90% under setting [13]; 88% under setting [14]; 87% under setting [15].

`CCCCCCCCCC(C)=O` [Methyl nonyl ketone, methyl nonyl ketone]: the pest or weed control at 0.5 % was determined as 85.7% under setting [6]; 84% under setting [7]; 80% under setting [8]; 74% under setting [9]; 80.9% under setting [10].

Regarding `CCCCCCCCCCCC(C)=O` [Methyl undecyl ketone, 2-tridecanone], the pest or weed control at 0.5 % under setting [1] turned out to be 100%; the pest or weed control at 0.5 % under setting [2] stood at 100%; the pest or weed control at 0.5 % under setting [3] is 100%; the pest or weed control at 0.5 % under setting [4] turned out to be 100%; the pest or weed control at 0.5 % under setting [5] is 100%.

Regarding `CC1=CCC(C(C)CC2CCCC2=O)CC1` (stereo not drawn) [Nectaryl ™, 2-(2-(4-methyl-3-cyclohexen-1-yl)propyl) cyclopentanone], the pest or weed control at 0.5 % by setting is: under setting [1], 87.8%; under setting [2], 95.9%; under setting [3], 100%; under setting [4], 100%; under setting [5], 95.9%.

Turning to `C=C(C)C1CCC2=CC(=O)CC(C)C2(C)C1` (stereo not drawn) [Nootkatone, 4,4a-dimethyl-6-prop-1-en-2-yl-3,4,5,6,7,8-hexahydronaphthalen-2-one], the “percent repellency at 2 hour” value (chemical at 0.1%) is recorded as 60%. In addition, the pest or weed control at 0.5 % is 100% under setting [1]; 100% under setting [2]; 100% under setting [3]; 100% under setting [4]; 100% under setting [5].

As to `CCCCCC1C(=O)CCC1CC(=O)OCC=C(C)C` (stereo not drawn) [Prenyl dihydrojasmonate, 3-methylbut-2-enyl 2-(3-oxo-2-pentylcyclopentyl)acetate], for the setting “chemical at 1.0%”, the “percent repellency at 2 hour” value was 82%.

Regarding `CCCCCC1C(=O)CCC1CC(=O)OCCC` (stereo not drawn) [Propyl dihydrojasmonate, propyl 2-(3-oxo-2-pentylcyclopentyl)acetate], under “chemical at 0.2%”, the “percent repellency at 2 hour” value was determined as 78%.
